These results are taken from patent US20260258050A1, “IMMUNOMODULATOR” (HITGEN INC., priority 2023, published 2026).

By IC50 is commonly meant the midpoint of a concentration-inhibition curve.

For the assay, the target named is T1, Human IL-17A (Homo sapiens, UniProt Q16552).
T1 sequence (Q16552 20-155 limits assumed): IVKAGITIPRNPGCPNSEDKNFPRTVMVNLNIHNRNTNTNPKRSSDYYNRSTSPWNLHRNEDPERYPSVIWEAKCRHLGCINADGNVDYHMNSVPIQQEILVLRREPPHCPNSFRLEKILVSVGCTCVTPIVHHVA
Put plainly: IL-17A enzyme-linked immunosorbent assay (competitive ELISA, IL-17A/IL-17Ra receptor-ligand binding). Set-up: purchased Sino Biological Inc. 12047-H07B. As to conditions: human IL-17A coated plate, human IL-17Ra, read-out: IC50, inhibitory activity of compounds on human IL-17A. Put shortly:
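Competitive ELISA with plates coated with human IL-17A at 0.2 μg/ml, blocked with 5% skim milk. Compound pre-incubated with IL-17A 10 min at 25 °C, then 16 nM IL-17Ra stock added for 30 min. Bound receptor detected by anti-Fc HRP/TMB, A450. IC50 from variable-slope fit of blank-corrected residual activity.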
In the case of `Cc1[nH]nc2c1-c1cc(F)c(NC(=O)[C@@H](NC(=O)c3ccnn3C[C@@H]3C[C@H]3F)C(C3CC3)C3CC3)cc1COCC2` [compound 101], the IC50 is not above 50 nM.
As for `Cc1[nH]nc2c1-c1cnc(NC(=O)[C@@H](NC(=O)/C(F)=C\C(C)C)C(C3CC3)C3CC3)cc1COCC2` [compound 238], the figure is not above 50 nM; as for `CCn1nccc1C(=O)N[C@H](C(=O)Nc1cc2c(cn1)-c1c(n[nH]c1C)CCN(C1CC1)C2)C(C1CC1)C1CC1` [compound 217], not above 50 nM.
Take `Cc1[nH]nc2c1-c1cnc(NC(=O)[C@@H](NC(=O)c3ccnn3C(C)CF)C(C3CC3)C3CC3)cc1COCC2` (single isomer, unassigned) [compound 189a]: the IC50 was not above 50 nM.
For `Cc1[nH]nc2c1-c1cc(F)c(NC(=O)[C@@H](NC(=O)c3ccnn3C)C(C3CC3)C3CC3)cc1COCC2` [compound 17], the IC50 was not above 50 nM.
As for `Cc1[nH]nc2c1-c1cc(F)c(NC(=O)[C@@H](NC(=O)c3ccnn3C(C)CF)C(C3CC3)C3CC3)cc1COCC2` (single isomer, unassigned) [compound 42a], the figure is not above 50 nM; as for `Cc1[nH]nc2c1-c1cnc(NC(=O)[C@@H](NC(=O)c3ccnn3C(C)C)C(C3CC3)C3CC3)cc1CN(C1CCC1)CC2` [compound 201], not above 50 nM; as for `Cc1[nH]nc2c1-c1cnc(NC(=O)[C@@H](NC(=O)c3ccnn3C(C)C)C(C3CC3)C3CC3)cc1CN(Cc1ccccc1)C(=O)C2` [compound 182], not above 50 nM.
For `Cc1[nH]nc2c1-c1cnc(NC(=O)[C@@H](NC(=O)c3ccnn3C(C)CF)C(C3CC3)C3CC3)cc1COCC2` (single isomer, unassigned) [compound 189b], the IC50 was not above 50 nM.
As for `Cc1[nH]nc2c1-c1cc(F)c(NC(=O)[C@@H](NC(=O)c3ccnn3C(C)C3CC3)C(C3CC3)C3CC3)cc1COCC2` (single isomer, unassigned) [compound 41b], the figure is not above 50 nM; as for `COCC(COC)n1nccc1C(=O)N[C@H](C(=O)Nc1cc2c(cc1F)-c1c(n[nH]c1C)CCOC2)C(C1CC1)C1CC1` [compound 99], 50 to 150 nM; as for `Cc1[nH]nc2c1-c1cc(F)c(NC(=O)[C@@H](NC(=O)c3ccnn3CCOC3CC3)C(C3CC3)C3CC3)cc1COCC2` [compound 102], not above 50 nM.
Consider `CCn1nccc1C(=O)N[C@H](C(=O)Nc1ccc2c(c1)CN(C)C(=O)Cc1n[nH]c(C)c1-2)C(C1CC1)C1CC1` [compound 23], for which the IC50 is not above 50 nM.
`Cc1[nH]nc2c1-c1cc(F)c(NC(=O)[C@@H](NC(=O)c3ccnn3CCC(F)(F)F)C(C3CC3)C3CC3)cc1COCC2` [compound 88]: the half-inhibitory concentration (IC50) is 50 to 150 nM.
Consider `Cc1[nH]nc2c1-c1cnc(NC(=O)[C@@H](NC(=O)c3conc3C(C)C)C(C3CC3)C3CC3)cc1COCC2` [compound 234], for which the 50% inhibitory concentration (IC50) was not above 50 nM.
In the case of `CCc1nocc1C(=O)N[C@H](C(=O)Nc1cc2c(cn1)-c1c(n[nH]c1C)CCN(C1CC1)C2)C(C1CC1)C1CC1` [compound 216], the IC50 was not above 50 nM.
With `Cc1[nH]nc2c1-c1cnc(NC(=O)[C@@H](NC(=O)c3ccnn3C(C)C)C(C3CC3)C3CC3)cc1CN(C(C)C)C(=O)C2` [compound 195], the IC50 was not above 50 nM.
`Cc1[nH]nc2c1-c1cnc(NC(=O)[C@@H](NC(=O)c3ccnn3CCCF)C(C3CC3)C3CC3)cc1COCC2` [compound 124]: the IC50 is not above 50 nM.
Regarding `CCn1nccc1C(=O)N[C@H](C(=O)Nc1ccc2c(c1)CNC(=O)Cc1n[nH]c(C)c1-2)C(C1CC1)C1CC1` [compound 28], the IC50 is not above 50 nM.
On to `Cc1[nH]nc2c1-c1cc(F)c(NC(=O)[C@@H](NC(=O)c3ccnn3CC3COC3)C(C3CC3)C3CC3)cc1COCC2` [compound 115], for which the IC50 was not above 50 nM.
As to `Cc1[nH]nc2c1-c1ccc(NC(=O)[C@@H](NC(=O)c3ccnn3C(C)C)C(C3CC3)C3CC3)cc1CN(C)C(=O)C2` [compound 22], the IC50 is not above 50 nM.
For `[2H]C([2H])([2H])C([2H])(n1nccc1C(=O)N[C@H](C(=O)Nc1cc2c(cc1F)-c1c(n[nH]c1C)CCOC2)C(C1CC1)C1CC1)C([2H])([2H])[2H]` [compound 89] the value was not above 50 nM; for `Cc1[nH]nc2c1-c1cnc(NC(=O)[C@@H](NC(=O)c3conc3C3CC3)C(C3CC3)C3CC3)cc1CN(C1CC1)CC2` [compound 215], not above 50 nM; for `Cc1[nH]nc2c1-c1cc(F)c(NC(=O)[C@@H](NC(=O)c3ccnn3CCCF)C(C3CC3)C3CC3)cc1COCC2` [compound 86], not above 50 nM.
For `Cc1[nH]nc2c1-c1cnc(NC(=O)[C@@H](NC(=O)c3ccnn3C(C)C3CC3)C(C3CC3)C3CC3)cc1COCC2` (single isomer, unassigned) [compound 188a] the value was not above 50 nM.
Regarding `CC(=O)N1CCc2n[nH]c(C)c2-c2cnc(NC(=O)[C@@H](NC(=O)c3ccnn3C(C)C)C(C3CC3)C3CC3)cc2C1` [compound 196], the IC50 was not above 50 nM.
For `CCn1nccc1C(=O)N[C@H](C(=O)Nc1cc2c(cc1F)-c1c(n[nH]c1C)CCOC2)[C@H]1CC[C@H](C)CC1` [compound 46] the value was not above 50 nM.
For `Cc1[nH]nc2c1-c1cc(F)c(NC(=O)[C@@H](NC(=O)c3ccnn3C(C)C)C(C3CC3)C3CC3)cc1CN(C1CCC(F)(F)CC1)C(=O)C2` [compound 168] the value was not above 50 nM.
